The results in this text go back to ChEMBL document CHEMBL5532639, “Heterocyclic pyrimidine derivatives as promising antibacterial agents” (Eur J Med Chem, 2023).

Converted amounts (≈) assume the structure as drawn.

The subject of assay [1] is Escherichia coli. The experiment in a line: Antibacterial activity against Escherichia coli assessed as zone of inhibition at 50 microg/ml by cup plate analysis. The following applies: read-out: IZ. The format is functional.
The next assay deals with Proteus vulgaris. In words: Antibacterial activity against Proteus vulgaris assessed as zone of inhibition at 50 microg/ml by cup plate analysis. The following applies: read-out: IZ. The format is functional.
Assay [2] has as its system Bacillus subtilis. The experiment in a line: Antibacterial activity against Bacillus subtilis assessed as zone of inhibition at 50 microg/ml by cup plate analysis. The format is functional. The conditions noted are these: read-out: IZ.
The test system of another assay is Bacillus pumilus. In words: Antibacterial activity against Bacillus pumilus assessed as zone of inhibition at 50 microg/ml by cup plate analysis. Format: functional. The following applies: read-out: IZ.
In another assay the test system is Staphylococcus cohnii. The experiment in a line: Antibacterial activity against Staphylococcus cohnii. Format: functional.
Assay [3] concerns Staphylococcus epidermidis. In words: Antibacterial activity against Staphylococcus epidermidis assessed as reduction in microbial growth after 24 hrs by CLSI based microdilution method. Format: functional.
Assay [4] deals with Corynebacterium glutamicum. The experiment in a line: Antibacterial activity against Corynebacterium glutamicum. Format: functional.
Assay [5] has as its system Staphylococcus haemolyticus. In words: Antibacterial activity against Staphylococcus haemolyticus clinical isolates assessed as bacterial growth inhibition measured after 16 to 24 hrs by broth microdilution assay. The format is functional. The conditions noted are these: time 16-24 hrs. Background: In broth dilution the organism is exposed to a series of concentrations in liquid medium.

Assay [6] deals with Arcanobacterium haemolyticum. The experiment in a line: Antibacterial activity against Arcanobacterium haemolyticum. Format: functional.
Assay [7] deals with Staphylococcus epidermidis. In words: Antibacterial activity against Staphylococcus epidermidis assessed as reduction in bacterial growth measured after 24 hrs by broth microdilution method. The format is functional.
The subject of another assay is Alcaligenes faecalis. The experiment in a line: Antibacterial activity against Alcaligenes faecalis. The format is functional.
The test system of the next assay is Corynebacterium xerosis. The experiment in a line: Antibacterial activity against Corynebacterium xerosis. The format is functional.
Assay [8] has as its system Micrococcus luteus. In words: Antibacterial activity against Micrococcus luteus assessed as reduction in microbial growth. Format: functional.
The subject of assay [9] is Micrococcus luteus. The experiment in a line: Antibacterial activity against Micrococcus luteus assessed as bacterial growth inhibition by paper disc diffusion assay. Format: functional. A general note: Agar diffusion results depend on both activity and mobility in agar.
Assay [10] has as its system Corynebacterium glutamicum. The experiment in a line: Antibacterial activity against Corynebacterium glutamicum ATCC 13032 cultured in MHB medium assessed as no bacterial growth incubated at 20 degC for 24 hrs by microdilution susceptibility test. The format is functional.
In another assay the test system is Corynebacterium sp. The experiment in a line: Antibacterial activity against Corynebacterium sp. Format: functional.
A further assay has as its system Micrococcus sp. The experiment in a line: Antibacterial activity against Micrococcus sp. Format: functional.
The next assay relates to Moraxella catarrhalis. In words: Antibacterial activity against Moraxella catarrhalis assessed as reduction in bacterial growth by broth microdilution method. The format is functional.
A further assay concerns Acinetobacter sp. In words: Antibacterial activity against Acinetobacter sp. Format: functional.
Another assay relates to Staphylococcus hominis. The experiment in a line: Antibacterial activity against Staphylococcus hominis. The format is functional.
The test system of the next assay is Staphylococcus xylosus. The experiment in a line: Antibacterial activity against Staphylococcus xylosus assessed as reduction in bacterial growth. Format: functional.
A further assay deals with Klebsiella pneumoniae. In words: Antibacterial activity against Klebsiella pneumoniae assessed as reduction in bacterial growth incubated for 16 to 20 hrs by Mueller-Hinton broth based two-fold serial dilution method. The format is functional. The conditions noted are these: time 16-20 hrs.
Assay [11] has as its system Streptococcus pyogenes. The experiment in a line: Antibacterial activity against Streptococcus pyogenes assessed as reduction in microbial growth incubated for 24 hrs by broth micro-dilution method. The format is functional.
Assay [12] deals with Escherichia coli. The experiment in a line: Antibacterial activity against Escherichia coli assessed as reduction in bacterial growth incubated for 16 to 20 hrs by Mueller-Hinton broth based two-fold serial dilution method. Format: functional. The following applies: time 16-20 hrs.
In assay [13] the test system is Staphylococcus aureus. The experiment in a line: Antibacterial activity against Staphylococcus aureus assessed as reduction in bacterial growth incubated for 16 to 20 hrs by Mueller-Hinton broth based two-fold serial dilution method. The conditions noted are these: time 16-20 hrs. Format: functional.
Assay [14] concerns Pseudomonas aeruginosa. The experiment in a line: Antibacterial activity against Pseudomonas aeruginosa assessed as reduction in bacterial growth incubated for 24 hrs by broth microdilution method. Format: functional.
Assay [15] relates to Escherichia coli. In words: Antibacterial activity against Escherichia coli assessed as bacterial growth inhibition incubated for 18 hrs by CLSI protocol based Mueller-Hinton broth assay. Format: functional.
Assay [16] relates to Staphylococcus aureus. The experiment in a line: Antibacterial activity against Staphylococcus aureus assessed as reduction in microbial growth by CLSI based broth microdilution method. Format: functional.
Assay [17] deals with Pseudomonas aeruginosa. In words: Antibacterial activity against Pseudomonas aeruginosa assessed as reduction in bacterial growth by broth microdilution method. The format is functional.
For assay [18], the system named is Streptococcus pyogenes. The experiment in a line: Antibacterial activity against Streptococcus pyogenes assessed as reduction in microbial growth by CLSI based broth microdilution method. Format: functional.
Assay [19] deals with Escherichia coli. The experiment in a line: Antibacterial activity against Escherichia coli assessed as inhibition of bacterial growth incubated for 4 to 20 hrs by resazurin based microplate reader analysis. Format: functional. The following applies: time 4-20 hrs. On the technique in general: Alamar Blue is a resazurin reagent that responds to reducing activity.
For assay [20], the system named is Pseudomonas aeruginosa. The experiment in a line: Antibacterial activity against Pseudomonas aeruginosa assessed as inhibition of bacterial growth incubated for 4 to 20 hrs by resazurin based microplate reader analysis. The format is functional. The following applies: time 4-20 hrs.
In assay [21] the test system is Bacillus subtilis. In words: Antibacterial activity against Bacillus subtilis assessed as inhibition of bacterial growth incubated for 4 to 20 hrs by resazurin based microplate reader analysis. Format: functional. The following applies: time 4-20 hrs.
Assay [22] relates to Staphylococcus aureus. The experiment in a line: Antibacterial activity against Staphylococcus aureus assessed as inhibition of bacterial growth incubated for 4 to 20 hrs by resazurin based microplate reader analysis. The format is functional. The following applies: time 4-20 hrs.
Assay [23] concerns Bacillus subtilis. The experiment in a line: Antibacterial activity against Bacillus subtilis assessed as bacterial growth inhibition by measuring zone of inhibition at 50 ug/ml by agar cup diffusion assay. The format is functional. The conditions noted are these: read-out: IZ.
In the next assay the test system is Salmonella typhimurium. The experiment in a line: Antibacterial activity against Salmonella typhimurium DT104 assessed as bacterial growth inhibition by measuring zone of inhibition at 50 ug/ml by agar cup diffusion assay. The format is functional, Salmonella enterica subsp. enterica serovar Typhimurium. The following applies: Salmonella enterica, read-out: IZ.

The test system of assay [24] is Escherichia coli. In words: Antibacterial activity against Escherichia coli assessed as bacterial growth inhibition by measuring zone of inhibition at 50 ug/ml by agar cup diffusion assay. Format: functional. The conditions noted are these: read-out: IZ.
In assay [25] the test system is Staphylococcus aureus. The experiment in a line: Antibacterial activity against Staphylococcus aureus assessed as bacterial growth inhibition by measuring zone of inhibition at 50 ug/ml by agar cup diffusion assay. The conditions noted are these: read-out: IZ. The format is functional.

`Nc1nc(-c2ccsc2)cc(-c2ccc(Cl)cc2Cl)n1`: the zone of inhibition at 50 µg/mL in the assay on Escherichia coli [1] is 12 mm; in the assay on Proteus vulgaris, 15 mm; in the assay with Bacillus subtilis [2], 16 mm; with Bacillus pumilus it was 13 mm.
By MIC is commonly meant the smallest concentration in the dilution series that meets the test's criterion for growth inhibition. As for `Nc1nc(Cl)c(C(Cc2ccccc2)c2ccc(Cl)cc2)c(Cl)n1` (stereo unspecified), the MIC in the assay with Staphylococcus cohnii is 100 mg/L (≈ 264 µM); in [3] it was 100 mg/L; in assay [4] it was 100 mg/L (≈ 264 µM); in assay [5], 100 mg/L (≈ 264 µM); in assay [6], 10 mg/L (≈ 26.4 µM); in assay [7], 100 mg/L (≈ 264 µM). Further, the MIC against Alcaligenes faecalis is more than 500 mg/L; with Corynebacterium xerosis it was 30 mg/L (≈ 79.2 µM); in the assay on Micrococcus luteus [8] it was 100 mg/L; with Micrococcus luteus [9], 100 mg/L (≈ 264 µM); in [10], 100 mg/L (≈ 264 µM); with Corynebacterium sp. it was 100 mg/L (≈ 264 µM). Moreover, the MIC in the assay with Micrococcus sp. was 100 mg/L (≈ 264 µM); with Moraxella catarrhalis, 500 mg/L (≈ 1320 µM); in the assay on Acinetobacter sp., more than 500 mg/L; in the assay on Staphylococcus hominis, 100 mg/L (≈ 264 µM); with Staphylococcus xylosus it was 100 mg/L (≈ 264 µM).
Regarding `Nc1c(-c2nc3ccccc3s2)c(-c2ccc(Cl)cc2)nc2nc(N/N=C/c3cccc([N+](=O)[O-])c3)[nH]c(=O)c12`, the MIC with Klebsiella pneumoniae worked out at 12.5 mg/L (≈ 22 µM); with Streptococcus pyogenes [11], 12.5 mg/L; in the assay on Escherichia coli [12], 12.5 mg/L (≈ 22 µM); in the assay with Staphylococcus aureus [13], 12.5 mg/L (≈ 22 µM); in the assay on Pseudomonas aeruginosa [14] it was 12.5 mg/L (≈ 22 µM).
In the case of `Clc1ccc(C(Cc2ccccc2)c2c(Cl)nc(Cl)nc2Cl)cc1` (stereo unspecified), the MIC against Staphylococcus cohnii was 100 mg/L (≈ 251 µM); in assay [3] it was 100 mg/L; in assay [4] it was 30 mg/L (≈ 75.4 µM); in assay [5], 100 mg/L (≈ 251 µM); in [6] it was 10 mg/L (≈ 25.1 µM); in assay [7], more than 100 mg/L. Moreover, the MIC came out at 1000 mg/L (≈ 2510 µM) against Alcaligenes faecalis; 20 mg/L (≈ 50.2 µM) with Corynebacterium xerosis; 20 mg/L in the assay on Micrococcus luteus [8]; 20 mg/L (≈ 50.2 µM) in the assay on Micrococcus luteus [9]; 30 mg/L (≈ 75.4 µM) in assay [10]; 100 mg/L (≈ 251 µM) against Corynebacterium sp.. The MIC was 30 mg/L (≈ 75.4 µM) in the assay with Micrococcus sp.; 300 mg/L (≈ 754 µM) with Moraxella catarrhalis; more than 1000 mg/L with Acinetobacter sp.; 100 mg/L (≈ 251 µM) against Staphylococcus hominis; 20 mg/L (≈ 50.2 µM) in the assay with Staphylococcus xylosus.
Regarding `CCOC(=O)c1ccc(Nc2nc(Nc3ccc(S(=O)(=O)Nc4ncccn4)cc3)nc(N3CCCCC3)n2)cc1`, the MIC amounted to 25 mg/L (≈ 43.4 µM) in the assay on Escherichia coli [15], 100 mg/L in the assay on Staphylococcus aureus [16], 25 mg/L (≈ 43.4 µM) in the assay on Pseudomonas aeruginosa [17] and 100 mg/L in the assay on Streptococcus pyogenes [18].
Take `Nc1c(-c2nc3ccccc3s2)c(-c2ccc(Cl)cc2)nc2nc(N/N=C/c3cccc(Cl)c3)[nH]c(=O)c12`: the MIC with Klebsiella pneumoniae was 50 mg/L (≈ 89.5 µM); in the assay with Streptococcus pyogenes [11], 25 mg/L; with Escherichia coli [12] it was 25 mg/L (≈ 44.8 µM); in the assay on Staphylococcus aureus [13], 25 mg/L (≈ 44.8 µM); in the assay with Pseudomonas aeruginosa [14] it was 50 mg/L (≈ 89.5 µM).
As for `Cc1nc(NC(=O)c2cc(C(F)(F)F)cc(C(F)(F)F)c2)c2c(C(F)(F)F)cc(-c3ccccc3)nc2n1`, the MIC is 50 mg/L (≈ 91.8 µM) in the assay with Escherichia coli [19], 50 mg/L (≈ 91.8 µM) with Pseudomonas aeruginosa [20], 12.5 mg/L (≈ 23 µM) in the assay with Bacillus subtilis [21] and 12.5 mg/L (≈ 23 µM) in the assay on Staphylococcus aureus [22].
In the case of `O=C(CSc1nnc(-c2cccnc2N2CCOCC2)o1)Nc1nc(-c2ccc(Cl)cc2Cl)cc(-c2cc(F)c(Cl)cc2Cl)n1`, the zone of inhibition at 50 µg/mL in the assay on Bacillus subtilis [23] was 9 mm; with Salmonella typhimurium it was 12 mm; with Escherichia coli [24], 12 mm; in the assay with Staphylococcus aureus [25] it was 13 mm.
For the molecule `Clc1ccc(C(Cc2ccccc2)c2c(Cl)nc(N3CCNCC3)nc2Cl)cc1` (stereo unspecified), the MIC with Staphylococcus cohnii stood at 100 mg/L (≈ 223 µM); in assay [3], 100 mg/L; in [4], 100 mg/L (≈ 223 µM); in [5], 100 mg/L (≈ 223 µM); in assay [6] it was 10 mg/L (≈ 22.3 µM); in [7], 100 mg/L (≈ 223 µM). Moreover, the MIC is more than 500 mg/L in the assay on Alcaligenes faecalis; 30 mg/L (≈ 67 µM) against Corynebacterium xerosis; 100 mg/L with Micrococcus luteus [8]; 100 mg/L (≈ 223 µM) with Micrococcus luteus [9]; 50 mg/L (≈ 112 µM) in assay [10]; 100 mg/L (≈ 223 µM) against Corynebacterium sp.. The MIC in the assay with Micrococcus sp. was found to be 100 mg/L (≈ 223 µM); in the assay on Moraxella catarrhalis it was 100 mg/L (≈ 223 µM); in the assay on Acinetobacter sp., 50 mg/L (≈ 112 µM); against Staphylococcus hominis, 100 mg/L (≈ 223 µM); in the assay with Staphylococcus xylosus, 100 mg/L (≈ 223 µM).
Consider `CC1(C)S[C@@H]2[C@H](NC(=O)[C@H](N)c3ccc(O)cc3)C(=O)N2[C@H]1C(=O)O` [AMOXICILLIN], for which the MIC with Escherichia coli [19] stood at 0.5 mg/L (≈ 1.37 µM); with Pseudomonas aeruginosa [20], 1 mg/L (≈ 2.74 µM); in the assay on Bacillus subtilis [21], 0.39 mg/L (≈ 1.07 µM); in the assay on Staphylococcus aureus [22], 0.39 mg/L (≈ 1.07 µM).
